Here are results for seven molecules from PubChem BioAssay (NCI).

Test systems include TK-10 renal; KM12 colon; CCRF-CEM leukemia; HCT-15 colon; SF-295 CNS; A498 renal; SK-OV-3 ovarian; SF-268 CNS; 786-0 renal; BT-549 breast; MDA-MB-231 breast; CAKI-1 renal; SK-MEL-28 melanoma; A549 NSCLC; PC-3 prostate; HL-60(TB) leukemia; SF-539 CNS; NCI-H226 lung; NCI/ADR-RES ovarian; SK-MEL-2 melanoma.
Common to all, as to experiment: NCI anticancer screen, dose series, 48 h

The structures appear in SMILES notation.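 All cell lines were grown in 96-well plates and treated with compound for 48 hours. TGI denotes the concentration required for complete inhibition of growth.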

In the case of `CN(CCCNC(=O)c1cn(C)c2c1ccc1cc(Cl)c(Cl)cc12)CCCNC(=O)c1cn(C)c2c1ccc1cc(Cl)c(Cl)cc12`, the TGI with TK-10 renal worked out at 37.4 µM; with KM12 colon, 20.8 µM; with CCRF-CEM leukemia, 38.7 µM; with HCT-15 colon, 27.5 µM; in the experiment on SF-295 CNS it was 38.3 µM; in the experiment with A498 renal, 28 µM. Further, the TGI with SK-OV-3 ovarian was 30.7 µM; with SF-268 CNS, 34 µM; in the experiment with 786-0 renal it was 49.4 µM; in the experiment with BT-549 breast it was 33.3 µM; in the experiment with MDA-MB-231 breast, 29.8 µM; with CAKI-1 renal it was 27.1 µM. For the same molecule, the TGI was 42 µM in the experiment on SK-MEL-28 melanoma; 32.4 µM with A549 NSCLC; 27.4 µM in the experiment on PC-3 prostate; 8.32 µM in the experiment with HL-60(TB) leukemia; 32.1 µM with SF-539 CNS; 47.9 µM in the experiment with NCI-H226 lung. Further, the TGI amounted to 33.1 µM in the experiment with NCI/ADR-RES ovarian and 31.5 µM in the experiment with SK-MEL-2 melanoma.
`NC1CC(=O)c2c(Cl)sc(Cl)c21` (stereo not given): the TGI in the experiment with TK-10 renal was 6.26 µM; in the experiment with KM12 colon, 12.8 µM; with CCRF-CEM leukemia it was 2.94 µM; in the experiment with HCT-15 colon, 3.94 µM; in the experiment on SF-295 CNS, 31.3 µM; in the experiment on A498 renal it was 31.1 µM. The TGI worked out at 26.4 µM in the experiment on SK-OV-3 ovarian; 67.4 µM with SF-268 CNS; 2.87 µM in the experiment with 786-0 renal; 10.7 µM with BT-549 breast; 6.39 µM in the experiment on MDA-MB-231 breast; 6.1 µM with CAKI-1 renal. Moreover, the TGI was found to be 4 µM in the experiment on SK-MEL-28 melanoma; 35.3 µM with A549 NSCLC; 18 µM in the experiment with PC-3 prostate; 6.09 µM with HL-60(TB) leukemia; 8.85 µM with SF-539 CNS; 30.9 µM with NCI-H226 lung. Besides, the figures for the TGI with NCI/ADR-RES ovarian and in the experiment with SK-MEL-2 melanoma were 49.9 µM and 25 µM, respectively.
Regarding `N#Cc1c(-c2ccccc2)c(N=Nc2ccc(F)cc2)c(=O)n2c1[nH]c1ccccc12`, the TGI with TK-10 renal is 25.8 µM; in the experiment on KM12 colon, 65 µM; in the experiment on CCRF-CEM leukemia, 7.57 µM; in the experiment on HCT-15 colon, > 100 µM; with SF-295 CNS it was 24.8 µM; with A498 renal it was 41 µM. The TGI with SK-OV-3 ovarian is 31.5 µM; with SF-268 CNS, 39.5 µM; in the experiment on 786-0 renal it was 14.3 µM; in the experiment on BT-549 breast it was 89.2 µM; in the experiment on MDA-MB-231 breast, > 50.9 µM; with CAKI-1 renal, 16.4 µM. Also, the TGI was > 100 µM in the experiment with SK-MEL-28 melanoma; 19.3 µM in the experiment on A549 NSCLC; > 35.2 µM in the experiment on PC-3 prostate; 3.68 µM in the experiment with HL-60(TB) leukemia; 32.2 µM in the experiment with SF-539 CNS; 39.1 µM in the experiment on NCI-H226 lung. Further, the TGI in the experiment on NCI/ADR-RES ovarian was 20.6 µM; with SK-MEL-2 melanoma, > 100 µM.
As for `C=C(C)CC1=C(OCC)C(OC)(OCC)C1=O` (stereo not given), the TGI with TK-10 renal, in the experiment with KM12 colon, in the experiment on CCRF-CEM leukemia, with HCT-15 colon, in the experiment on SF-295 CNS and in the experiment with A498 renal was > 100 µM in each case. For the same molecule, the TGI in the experiment with SK-OV-3 ovarian, with SF-268 CNS, in the experiment with 786-0 renal, with BT-549 breast, in the experiment with MDA-MB-231 breast and in the experiment with CAKI-1 renal was > 100 µM each time. Further, the TGI in the experiment on SK-MEL-28 melanoma, with A549 NSCLC, in the experiment on PC-3 prostate, in the experiment with HL-60(TB) leukemia, in the experiment on SF-539 CNS and in the experiment with NCI-H226 lung was > 100 µM each time. Further, the TGI in the experiment with NCI/ADR-RES ovarian and with SK-MEL-2 melanoma was > 100 µM throughout.
As to `O=CN1CCN(C(=O)c2cc(Cl)cc(Cl)c2)C1=S`, the TGI was found to be 28.7 µM with TK-10 renal; 29.8 µM with KM12 colon; 25.5 µM in the experiment with CCRF-CEM leukemia; 35.2 µM with HCT-15 colon; 36 µM in the experiment with SF-295 CNS; 29.6 µM in the experiment with A498 renal. Besides, the TGI came to 32.4 µM in the experiment with SK-OV-3 ovarian; 30.6 µM in the experiment with SF-268 CNS; 15.7 µM with 786-0 renal; 31.3 µM in the experiment with BT-549 breast; 33.8 µM in the experiment on MDA-MB-231 breast; 26 µM with CAKI-1 renal. For the same molecule, the TGI with SK-MEL-28 melanoma was 39.2 µM; in the experiment with A549 NSCLC, 39.8 µM; in the experiment with PC-3 prostate it was 35.8 µM; with HL-60(TB) leukemia, 29.7 µM; with SF-539 CNS, 39.7 µM; in the experiment on NCI-H226 lung, 32.7 µM. The figures for the TGI in the experiment with NCI/ADR-RES ovarian and with SK-MEL-2 melanoma were 80.7 µM and 33 µM, respectively.
For `Cc1cn(C2CC(O)C(Cn3cc(Cn4ncc(=O)[nH]c4=O)nn3)O2)c(=O)[nH]c1=O` (stereo not given), the TGI in the experiment with TK-10 renal, in the experiment on KM12 colon, in the experiment with CCRF-CEM leukemia, in the experiment with HCT-15 colon, with SF-295 CNS and in the experiment with A498 renal was > 100 µM in each case. Also, the TGI in the experiment on SK-OV-3 ovarian, in the experiment with SF-268 CNS, in the experiment on 786-0 renal, in the experiment on BT-549 breast, in the experiment with MDA-MB-231 breast and in the experiment with CAKI-1 renal was > 100 µM throughout. The TGI with SK-MEL-28 melanoma, with A549 NSCLC, with PC-3 prostate, with HL-60(TB) leukemia, in the experiment with SF-539 CNS and with NCI-H226 lung was > 100 µM each time. For the same molecule, the TGI in the experiment with NCI/ADR-RES ovarian and in the experiment with SK-MEL-2 melanoma was > 100 µM in each case.
Consider `COc1c2c(cc3c1C(O)N1CC[C@]34[C@H]3O[C@H]3[C@H](OC)C[C@@H]14)OCO2` (stereo not given in full), for which the TGI in the experiment on TK-10 renal was > 100 µM; with KM12 colon, > 100 µM; in the experiment on CCRF-CEM leukemia it was 14.2 µM; with HCT-15 colon it was > 100 µM; in the experiment with SF-295 CNS, 71.7 µM; in the experiment on A498 renal, > 100 µM. In addition, the TGI in the experiment on SK-OV-3 ovarian is 97.1 µM; with SF-268 CNS it was > 100 µM; in the experiment with 786-0 renal it was > 100 µM; in the experiment on BT-549 breast it was > 100 µM; in the experiment with MDA-MB-231 breast, > 100 µM; in the experiment on CAKI-1 renal, > 100 µM. The TGI in the experiment with SK-MEL-28 melanoma was > 100 µM; with A549 NSCLC, > 100 µM; with PC-3 prostate, > 100 µM; in the experiment on HL-60(TB) leukemia it was 3.53 µM; with SF-539 CNS, > 100 µM; in the experiment on NCI-H226 lung it was > 100 µM. The TGI is > 100 µM in the experiment on NCI/ADR-RES ovarian and 83.8 µM with SK-MEL-2 melanoma.
